Assay results: PMC9386018, “A lymphatic-absorbed multi-targeted kinase inhibitor for myelofibrosis therapy” (Nature Communications, 2022)
Where “and” joins values, the source holds several entries; their conditions need not be identical. Equal entries are not always repeated. Where two headings read alike, the source gives them in different places.

Tests used:
[1] = Bioavailability studies: recovery in feces and urine; format: in vivo, mouse; conditions: for LP-182 Recovered (mg) Feces / LP-182 Recovered (mg) Urine / Fa: individual replicates; for Fa: from Feces, read-out: LP-182 Bioavailability (%)
Protocol: Seven groups of female CD-1 mice (n = 4 per dosing group) received a single oral dose of LP-182 at 0, 100, 200, 400, 600, 800 and 1000 mg kg^−1 solubilized in Maisine CC. […] Urine and fecal samples were collected over 24 h at 24, 48 and 72 h intervals using metabolic cages, and quantitation of LP-182 in each sample was determined by the University of Michigan Pharmacokinetics Core. Briefly, water was added to fecal samples at an average ratio of 2.5 ± 1.6 (w/w) water:feces to generate fecal homogenates using a tissue homogenizer (Omni International TH), then approximately 200 mg of homogenate was diluted 5-fold with 20% (v/v) acetonitrile in water prior to analysis. […] The cumulative amount of compound recovered over 72 h in feces and urine was determined from sample analyte concentrations provided by the core, then converted to percent recovered by normalization to the amount of compound administered. […] LP-182 dose (mg kg^−1):LP-182 administered (mg) is 100:2.7; 200:5.4; 400:10.8; 600:16.2; 800:21.6; 1000:27.0. Data was generated from n = 4 individual animals per compound dose.

[2] = Rat mesenteric lymph duct cannulation model: lymphatic fluid and blood; format: in vivo; conditions: anesthetized rats; for Lymphatic fluid Concentration (ng/mL or ng/g): individual animals
Protocol: A rat mesenteric lymph duct cannulation model was used to collect and quantify LP-182 in lymphatic fluid, blood, and lymphatic proteo-lipid sub-fractions similar to previously described methods[37],[40]. Male Sprague-Dawley rats (n = 7) were anesthetized by isoflurane (Piramel, PA) and placed on a heated pad maintained at 37 °C using a Kent Scientific (Torrington, CT) low flow vaporizer and SomnoSuite for pulse oximetry and thermal regulation, respectively. The carotid artery, mesenteric lymph duct and duodenum were cannulated, and normal saline was continuously infused into the duodenum at 1.7 mL h^−1 using a constant rate infusion pump. After approx. 0.5 h, 50 mg kg^−1 of LP-182 solubilized in ~1.7 mL of either Maisine CC or a mixture of 93% Maisine CC and 7% Labrasol (Gattefossé; Saint-Priest, France) was infused over 1 h into the duodenum, followed by normal saline (as above) for the duration of the experiment. Hourly fractions of lymphatic fluid were collected continually (rate of ~0.5–1.2 mL h^−1) for approx. 6 h, while arterial blood samples (10–20 µL) were collected once per hour and stored at −20 °C for future analysis. Lymphatic fluid time course samples were either frozen or pooled for subsequent fractionation by ultracentrifugation to isolate proteo-lipid sub-fractions similar to previously described methods. Separation of chylomicrons was achieved by layering lymphatic fluid under PBS (Gibco; ThermoFisher Scientific) in a polyallomer ultracentrifuge tube (Beckman, CA), and centrifugation in a L8-70M ultracentrifuge (Beckman, CA) at 202,048 x g using a SW40Ti rotor (Beckman, CA) for 95 min at 15 °C. Following centrifugation, the semi-solid chylomicron layer at the top of the centrifuge tube was recovered and stored at −20 °C for future analysis. After replacing the void volume with PBS, the bottom layer underwent further ultracentrifugation for an additional 16 h as above, at which time a viscous dispersion of VLDL was collected from the top of the tube, and an aqueous fraction containing LDL/HDL from the bottom, which were stored at −20 °C for future analysis. All lymphatic fluid, blood, and fractionated chylomicron, VLDL, and LDL/HDL samples were analyzed by mass spectrometry for quantitation of LP-182 as outlined below. Relative LP-182 in lymphatic fluid proteo-lipid sub-fractions was calculated as the amount of compound in a specified fraction as a percentage of the cumulative amount of compound measured in all fractions. […] Relative LP-182 in blood was calculated as the amount of compound measured in a specified temporal fraction of blood as a percentage of the amount of compound measured in an equal volume of the same temporal fraction of lymphatic fluid, with the average calculated from all fractions. Data was generated from n = 2 individual animals sampled per time point per study condition due to limitations in blood volume collection.
(§1) Standards and compound extraction from biological fluids or tissues was performed using similar protocols, all resulting in recoveries ≥90%. Briefly, acetonitrile was added to a final concentration of 60–80% to bone marrow, whole blood, plasma, lymphatic fluid, lymphatic proteo-lipid sub-fractions, or mesenteric lymph node samples for compound extraction. Extraction was performed by shaking and/or bead rupture using a Precellys Evolution tissue homogenizer (Bertin Technologies SAS). […] Optimization of MS and MS/MS parameters for MRM quantitation and maximum sensitivity of individual compounds was performed using SCIEX Analyst software (AB Sciex). […] All LC-MS/MS acquisitions were performed with an independent standard curve for each group of analytes and for each individual run. All solvents utilized were of Optima LC-MS Grade (Fisher Scientific). Data was generated from n ≥ 2 individual animals per compound per study condition or dose.

[3] = Fractionation of lymphatic fluid into lipoprotein fractions by ultracentrifugation; format: in vivo; conditions: rat lymphatic fluid, 50 mg kg^−1 intra-duodenal
Protocol: as §1, with “Briefly,” for “Standards and compound extraction from biological fluids or tissues was performed using similar protocols, all resulting in recoveries ≥90%. Briefly,”

[4] = 1 h intra-duodenal infusion 50 mg kg^−1, 6 h

For `O=C(NOCCOCCOCCOCCC(=O)N1CCN(c2cnc3ccc(-c4cnc(Cl)c(NS(=O)(=O)c5ccc(F)cc5)c4)cc3n2)CC1)c1ccc(F)c(F)c1Nc1ccc(I)cc1F` [LP-182, N-(2-(2-(2-(3-(4-(7-(6-chloro-5-((4-fluorophenyl)sulfonamido)pyridin-3-yl)quinoxalin-2-yl)piperazin-1-yl)-3-oxopropoxy)ethoxy)ethoxy)ethoxy)-3,4-difluoro-2-((2-fluoro-4-iodophenyl)amino)benzamide], the “LP-182 Recovered (mg) Feces” value ([1]; Dose 100 mg/kg) was 0.2704 mg and 0.2192 mg and 0.3774 mg and 0.8162 mg, the “LP-182 Recovered (mg) Feces” value ([1]; Dose 200 mg/kg) was 0.8447 mg and 0.5724 mg and 1.4803 mg and 1.5068 mg and the “LP-182 Recovered (mg) Feces” value ([1]; Dose 400 mg/kg) was 1.4042 mg and 2.0055 mg and 2.0997 mg and 2.356 mg. For the same compound, the “LP-182 Recovered (mg) Feces” value ([1]; Dose 600 mg/kg) was 3.3135 mg and 1.6755 mg and 3.7882 mg and 2.917 mg, the “LP-182 Recovered (mg) Feces” value ([1]; Dose 800 mg/kg) was 3.1521 mg and 5.2995 mg and 6.9935 mg and 3.8874 mg and the “LP-182 Recovered (mg) Feces” value ([1]; Dose 1000 mg/kg) was 3.5565 mg and 6.4352 mg and 5.241 mg and 6.6537 mg. The “LP-182 Recovered (mg) Urine” value ([1]; Dose 100 mg/kg) was 0.001008 mg and 1.367e-05 mg and 0.0001025 mg and 0.00204 mg, the “LP-182 Recovered (mg) Urine” value ([1]; Dose 200 mg/kg) was 4.24e-05 mg and 0.0002221 mg and 5.303e-05 mg and 0.0002304 mg and the “LP-182 Recovered (mg) Urine” value ([1]; Dose 400 mg/kg) was 0.0004111 mg and 0.000386 mg and 0.0002292 mg and 0.001169 mg. For the same compound, the “LP-182 Recovered (mg) Urine” value ([1]; Dose 600 mg/kg) was 0.00017 mg and 0.02442 mg and 0.000379 mg and 0.001062 mg, the “LP-182 Recovered (mg) Urine” value ([1]; Dose 800 mg/kg) was 2.655e-05 mg and 0.001833 mg and 0.0008829 mg and 0.0002937 mg and the “LP-182 Recovered (mg) Urine” value ([1]; Dose 1000 mg/kg) was 0.0001091 mg and 2.205e-05 mg and 2.702e-05 mg and 0.001664 mg. For the same compound, the Fa ([1]; female, CD-1, mouse, feces, oral, 200 mg/kg, Dose 200 mg/kg) was 84.4%, the Fa ([1]; female, CD-1, mouse, feces, oral, 400 mg/kg, Dose 400 mg/kg) was 87% and the Fa ([1]; female, CD-1, mouse, feces, oral, 600 mg/kg, Dose 600 mg/kg) was 79.5%. For the same compound, the Fa ([1]; female, CD-1, mouse, feces, oral, 800 mg/kg, Dose 800 mg/kg) was 85.4%, the Fa ([1]; female, CD-1, mouse, feces, oral, 1000 mg/kg, Dose 1000 mg/kg) was 86.8% and the dose excreted at 24 h ([1]; female, CD-1, mouse, mice, oral, feces collected after 24 h, read-out: recovery from fecal samples, % of total recovered) was ~95%. The dose excreted at 48 h ([1]; female, CD-1, mouse, mice, oral, feces collected after 48 h, read-out: recovery from fecal samples, % of total recovered) was 5%, the Fa ([1]; Dose 100 mg/kg, 100 mg/kg) was 90% and 91.9% and 86% and 69.8% and the Fa ([1]; Dose 200 mg/kg, 200 mg/kg) was 89.4% and 72.6% and 72.1%. The Fa ([1]; Dose 400 mg/kg, 400 mg/kg) was 81.4% and 80.6% and 78.2%, the Fa ([1]; Dose 600 mg/kg, 600 mg/kg) was 89.7% and 76.6% and 82% and the Fa ([1]; Dose 800 mg/kg, 800 mg/kg) was 75.5% and 67.6% and 82%. The Fa ([1]; Dose 1000 mg/kg, 1000 mg/kg) was 76.2% and 80.6% and 75.4%, the “dose-independent fecal excretion (% drug recovered) of intact compound” value ([1]; mice, oral 100-1000 mg kg^−1, over 72 h) was “approximately 20%” and the “amount recovered in the urine” value ([1]; mice, oral, all time points (24, 48, 72 h)) was “negligible amounts”. The “oral bioavailability, lower threshold limit” value ([1]; mice, difference of administered and recovered in feces over 72 h) was ≥ 80%, the “Lymphatic fluid Concentration (ng/mL or ng/g)” value (“Lymphatic fluid Concentration” below) ([2]; 1 h intra-duodenal infusion 50 mg kg^−1, 0 h) was 0 ng/mL or ng/g and the “Lymphatic fluid Concentration” value ([2]; 1 h intra-duodenal infusion 50 mg kg^−1, 1 h) was 1075.78 ng/mL or ng/g and 810.78 ng/mL or ng/g and 1128.99 ng/mL or ng/g and 810.9 ng/mL or ng/g and 526.14 ng/mL or ng/g and 195.59 ng/mL or ng/g and 1185.4 ng/mL or ng/g. For the same compound, the “Lymphatic fluid Concentration” value ([2]; 1 h intra-duodenal infusion 50 mg kg^−1, 2 h) was 15938.1 ng/mL or ng/g and 4987.49 ng/mL or ng/g and 11915.5 ng/mL or ng/g and 8277.36 ng/mL or ng/g and 1691.13 ng/mL or ng/g and 3232.84 ng/mL or ng/g and 9168 ng/mL or ng/g, the “Lymphatic fluid Concentration” value ([2]; 1 h intra-duodenal infusion 50 mg kg^−1, 3 h) was 11950.5 ng/mL or ng/g and 2555.63 ng/mL or ng/g and 6787.62 ng/mL or ng/g and 11961.6 ng/mL or ng/g and 3014.24 ng/mL or ng/g and 1175.13 ng/mL or ng/g and 13326 ng/mL or ng/g and the “Lymphatic fluid Concentration” value ([2]; 1 h intra-duodenal infusion 50 mg kg^−1, 4 h) was 4407.66 ng/mL or ng/g and 5844.35 ng/mL or ng/g and 3822.74 ng/mL or ng/g and 8176.6 ng/mL or ng/g and 1916.83 ng/mL or ng/g and 592.35 ng/mL or ng/g and 6976.86 ng/mL or ng/g. The “Lymphatic fluid Concentration” value ([2]; 1 h intra-duodenal infusion 50 mg kg^−1, 5 h) was 4529.02 ng/mL or ng/g and 3482.33 ng/mL or ng/g and 3674.05 ng/mL or ng/g and 7088.41 ng/mL or ng/g and 2106.37 ng/mL or ng/g and 169.31 ng/mL or ng/g and 7019.83 ng/mL or ng/g, the “level in blood as % of total compound measured among each set of temporal fractions” value [2, 4] was 1.7% and the “Lymphatic fluid Concentration” value [2, 4] was 2432.36 ng/mL or ng/g and 2631.07 ng/mL or ng/g and 1756.69 ng/mL or ng/g and 8133.27 ng/mL or ng/g and 2059.99 ng/mL or ng/g and 330.98 ng/mL or ng/g and 2839 ng/mL or ng/g. For the same compound, the “association with VLDL fraction, % of total” value [3] was 9.7% and the “association with chylomicron fraction, % of total” value [3] was 8.0%.
